Results taken from patent US10508120B2, “TYK2 inhibitors and uses thereof” (Nimbus Lakshmi, Inc., priority 2017, dated 2019).

How the values were obtained:
JAK2 kinase domain (JH1) = JAK2 kinase domain (JH1) (Homo sapiens (Human), UniProt O60674); assay: JAK2 Radioactive Kinase Assay; type: biochemical; settings: 10 μM compound, 10 μM ATP; for inhibition at 10 µM: read-out: JAK2 JH1% Inhibition @ 10 μM
How it was run: (§1)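 Values are single-concentration percent inhibition figures. They were obtained with 10 μM compound in a radioactivity-based kinase assay run separately on each enzyme.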

Tyk2 kinase domain (DH1) = Tyk2 kinase domain (DH1) (Homo sapiens (Human), UniProt P29597); assay: Tyk2 Radioactive Kinase Assay; type: biochemical; settings: 10 μM compound, 10 μM ATP; for inhibition at 10 µM: read-out: Tyk2 JH1% Inhibition @ 10 μM
Chain of Tyk2 kinase domain (DH1) (P29597 897-1176): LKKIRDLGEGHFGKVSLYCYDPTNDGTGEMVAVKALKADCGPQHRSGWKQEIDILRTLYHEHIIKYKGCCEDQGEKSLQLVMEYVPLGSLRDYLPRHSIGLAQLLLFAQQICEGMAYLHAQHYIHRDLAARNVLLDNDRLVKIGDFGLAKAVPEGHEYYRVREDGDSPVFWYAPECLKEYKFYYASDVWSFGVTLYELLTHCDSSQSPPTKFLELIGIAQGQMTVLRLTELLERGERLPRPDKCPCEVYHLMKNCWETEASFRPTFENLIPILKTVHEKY
How it was run: as §1

[1] = biological target: human TYK2 (JH2domain-pseudokinase) (Homo sapiens (Human), UniProt P29597); assay: TYK2 JH2 Domain Binding Assay (KINOMEscan)
Chain of human TYK2 (JH2domain-pseudokinase) (P29597 556-888): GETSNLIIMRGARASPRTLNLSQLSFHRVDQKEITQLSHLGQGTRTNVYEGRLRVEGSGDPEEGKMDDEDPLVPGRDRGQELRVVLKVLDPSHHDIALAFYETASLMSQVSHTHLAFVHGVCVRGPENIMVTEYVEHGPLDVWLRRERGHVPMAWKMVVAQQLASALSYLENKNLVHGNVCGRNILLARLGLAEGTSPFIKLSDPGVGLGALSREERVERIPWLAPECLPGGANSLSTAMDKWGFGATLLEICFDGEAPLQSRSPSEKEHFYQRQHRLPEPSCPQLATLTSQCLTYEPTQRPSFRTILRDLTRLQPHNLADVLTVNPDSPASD
How it was run: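 Displacement of a DNA-tagged TYK2 JH2 fusion (human, aa G556–D888, HEK293 extract, <0.1 nM) from ligand-coated beads over 1 h at RT; binding buffer PBS/0.05% Tween 20/10 mM DTT/0.1% BSA.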

Chain of JAK2 kinase domain (JH1) (O60674 849-1124): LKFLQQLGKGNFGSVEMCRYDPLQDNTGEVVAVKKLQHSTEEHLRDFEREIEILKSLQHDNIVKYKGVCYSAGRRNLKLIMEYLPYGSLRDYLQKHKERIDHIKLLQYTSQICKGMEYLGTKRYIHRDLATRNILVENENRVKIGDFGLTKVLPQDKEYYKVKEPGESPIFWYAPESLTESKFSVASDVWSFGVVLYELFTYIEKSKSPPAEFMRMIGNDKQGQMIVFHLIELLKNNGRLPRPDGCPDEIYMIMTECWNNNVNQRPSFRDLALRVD

Row | Structure (SMILES) | inhibition at 10 µM (JAK2 kinase domain (JH1)) | inhibition at 10 µM (Tyk2 kinase domain (DH1)) | Kd [1] | JAK2 JH1% Inhibition @ 10 μM (JAK2 kinase domain (JH1)) | Tyk2 JH1% Inhibition @ 10 μM (Tyk2 kinase domain (DH1))
1 | CNc1cc(Nc2cccn([C@@H]3CCC[C@H](OC)C3)c2=O)nc2c(C(=O)NCC3(CO)CC3)cnn12 [I-929] | < 50% | < 50% | < 200 pM | – | –
2 | CNc1cc(Nc2cccn(-c3oc(C)nc3C)c2=O)nc2c(C(=O)NC3CC3)cnn12 [I-937] | < 50% | < 50% | 1000 to 10000 pM | – | –
3 | CNc1cc(Nc2cccn(-c3oc(C)nc3C)c2=O)nc2c(C(=O)N[C@@H]3C[C@@H]3F)cnn12 [I-938] | < 50% | < 50% | 200 to 1000 pM | – | –
4 | CNc1cc(Nc2cccn(-c3ccccc3F)c2=O)nc2c(C(=O)NCC(C)CO)cnn12 (stereo not drawn) [I-941] | < 50% | < 50% | < 200 pM | – | –
5 | CNc1cc(Nc2cccn(C3CCCCC3)c2=O)nc2c(C(=O)NCC(C)CO)cnn12 (stereo not drawn) [I-944] | < 50% | < 50% | < 200 pM | – | –
6 | CNc1cc(Nc2cccn(-c3cccc(F)c3)c2=O)nc2c(C(=O)NCC(C)CO)cnn12 (stereo not drawn) [I-947] | < 50% | < 50% | < 200 pM | – | –
7 | CNc1cc(Nc2cccn([C@H]3CCC[C@@H](OC)C3)c2=O)nc2c(C(=O)NCC(C)(C)CO)cnn12 [I-950] | < 50% | < 50% | 200 to 1000 pM | – | –
8 | CNc1cc(-c2cn(CCN3CCN(C)CC3)c3ncccc23)nc2c(C(=O)N[C@@H]3CC[C@H]3OC)cnn12 [I-953] | < 50% | < 50% | 200 to 1000 pM | – | –
9 | CNc1cc(Nc2cccn(-c3cncc(F)c3)c2=O)nc2c(C(=O)NC3CC3)cnn12 [I-967] | < 50% | < 50% | < 200 pM | – | –
10 | CNc1cc(Nc2cccn(-c3cncc(F)c3)c2=O)nc2c(C(=O)N[C@@H]3C[C@@H]3F)cnn12 [I-968] | < 50% | < 50% | < 200 pM | – | –

Continued, in another order:

Row | inhibition at 10 µM (JAK2 kinase domain (JH1)) | inhibition at 10 µM (Tyk2 kinase domain (DH1)) | Kd [1] | Structure (SMILES) | JAK2 JH1% Inhibition @ 10 μM (JAK2 kinase domain (JH1)) | Tyk2 JH1% Inhibition @ 10 μM (Tyk2 kinase domain (DH1))
11 | < 50% | < 50% | < 200 pM | CNc1cc(Nc2cc(Cl)cn(C3CCN(C)CC3)c2=O)nc2c(C(=O)N[C@H]3CC[C@@H]3O)cnn12 [I-931] | – | –
12 | < 50% | < 50% | 200 to 1000 pM | CNc1cc(Nc2cccn([C@H]3CCN(CCF)C3)c2=O)nc2c(C(=O)NC3CC3)cnn12 [I-932] | – | –
13 | < 50% | < 50% | < 200 pM | CNc1cc(Nc2cccn([C@@H]3CCN(CCF)C3)c2=O)nc2c(C(=O)NC3CC3)cnn12 [I-933] | – | –
14 | < 50% | < 50% | < 200 pM | CNc1cc(Nc2cccn([C@H]3CCN(CCF)C3)c2=O)nc2c(C(=O)N[C@@H]3C[C@@H]3F)cnn12 [I-934] | – | –
15 | < 50% | < 50% | < 200 pM | CNc1cc(Nc2cccn([C@@H]3CCN(CCF)C3)c2=O)nc2c(C(=O)N[C@@H]3C[C@@H]3F)cnn12 [I-935] | – | –
16 | < 50% | < 50% | < 200 pM | CNc1cc(Nc2cccn(C3CCCCC3)c2=O)nc2c(C(=O)N[C@H]3CC[C@H]3O)cnn12 [I-942] | – | –
17 | < 50% | < 50% | < 200 pM | CNc1cc(Nc2cccc(-c3cn(C)nc3F)n2)nc2c(C(=O)N[C@H]3CC[C@H]3O)cnn12 [I-948] | – | –
18 | < 50% | < 50% | 1000 to 10000 pM | CNc1cc(Nc2cccc(-c3cn(C)nc3F)n2)nc2c(C(=O)N[C@@H]3CC[C@@H]3O)cnn12 [I-949] | – | –
19 | – | – | < 200 pM | CNc1cc(Nc2cccn([C@H]3CC[C@H]3O)c2=O)nc2c(C(=O)NC3CC3)cnn12 [I-956] | A (percent inhibition at 10 μM lower than 50) | A (percent inhibition at 10 μM lower than 50)
20 | < 50% | < 50% | 1000 to 10000 pM | CNc1cc(Nc2cccn([C@@H]3CCC[C@@H]3O)c2=O)nc2c(C(=O)NC3CC3)cnn12 [I-964] | – | –
21 | < 50% | < 50% | 200 to 1000 pM | CNc1cc(Nc2cccn([C@@H]3CCC[C@@H]3O)c2=O)nc2c(C(=O)N[C@@H]3C[C@@H]3F)cnn12 [I-966] | – | –
